Laboratory results as given in the kinase profiling compilation of Christmann-Franck et al. (2016).

How the values were obtained:
Experiment in all cases: radiometric filter-binding kinase assay, Kinase HotSpot
Settings in all cases: compound 0.5 µM; ATP 10 µM
[1] = molecular target: ULK2 (human) (UniProt Q8IYT8)
[2] = molecular target: RAF1 (human) (UniProt P04049)
[3] = molecular target: PRKX (human) (UniProt P51817)
[4] = molecular target: ERBB4 (human) (UniProt Q15303)
[5] = molecular target: FER (human) (UniProt P16591)
[6] = molecular target: ALK (human) (UniProt Q9UM73)
[7] = molecular target: MST4 (human) (UniProt Q9P289)
[8] = molecular target: DYRK4 (human) (UniProt Q9NR20)
[9] = molecular target: PHKG2 (human) (UniProt P15735)
[10] = molecular target: MST1R (human) (UniProt Q04912)
[11] = molecular target: MAP3K14 (human) (UniProt Q99558)
[12] = molecular target: RPS6KB2 (human) (UniProt Q9UBS0)
[13] = molecular target: DSTYK (human) (UniProt Q6XUX3)
[14] = molecular target: PAK4 (human) (UniProt O96013)
[15] = molecular target: MAP2K2 (human) (UniProt P36507)
[16] = molecular target: TGFBR1 (human) (UniProt P36897)
[17] = molecular target: CAMK1 (human) (UniProt Q14012)
[18] = molecular target: CLK4 (human) (UniProt Q9HAZ1)
[19] = molecular target: MAP3K8 (human) (UniProt P41279)
[20] = molecular target: CLK3 (human) (UniProt P49761)
[21] = molecular target: KDR (human) (UniProt P35968)
[22] = molecular target: ROCK1 (human) (UniProt Q13464)
[23] = molecular target: CSF1R (human) (UniProt P07333)
[24] = molecular target: PAK6 (human) (UniProt Q9NQU5)
[25] = molecular target: TAOK2 (human) (UniProt Q9UL54)
[26] = molecular target: NEK7 (human) (UniProt Q8TDX7)
[27] = molecular target: IRAK4 (human) (UniProt Q9NWZ3)
[28] = molecular target: MARK4 (human) (UniProt Q96L34)
[29] = molecular target: PNCK (human) (UniProt Q6P2M8)
[30] = molecular target: ZAP70 (human) (UniProt P43403)
[31] = molecular target: STK11 (human) (UniProt Q15831)
[32] = molecular target: HIPK2 (human) (UniProt Q9H2X6)
[33] = molecular target: MAPK9 (human) (UniProt P45984)
[34] = molecular target: MAPK10 (human) (UniProt P53779)
[35] = molecular target: CLK2 (human) (UniProt P49760)
[36] = molecular target: JAK3 JH1 JH2 (human) (UniProt P52333)
[37] = molecular target: CDK5 CDK5R1 p25 (human) (UniProt Q00535+Q15078)
[38] = molecular target: CSNK1G3 (human) (UniProt Q9Y6M4)
[39] = molecular target: TEK (human) (UniProt Q02763)
[40] = molecular target: LTK (human) (UniProt P29376)
[41] = molecular target: NUAK1 (human) (UniProt O60285)

Sequence of PAK6 (human) (Q9NQU5 whole entry, looked up): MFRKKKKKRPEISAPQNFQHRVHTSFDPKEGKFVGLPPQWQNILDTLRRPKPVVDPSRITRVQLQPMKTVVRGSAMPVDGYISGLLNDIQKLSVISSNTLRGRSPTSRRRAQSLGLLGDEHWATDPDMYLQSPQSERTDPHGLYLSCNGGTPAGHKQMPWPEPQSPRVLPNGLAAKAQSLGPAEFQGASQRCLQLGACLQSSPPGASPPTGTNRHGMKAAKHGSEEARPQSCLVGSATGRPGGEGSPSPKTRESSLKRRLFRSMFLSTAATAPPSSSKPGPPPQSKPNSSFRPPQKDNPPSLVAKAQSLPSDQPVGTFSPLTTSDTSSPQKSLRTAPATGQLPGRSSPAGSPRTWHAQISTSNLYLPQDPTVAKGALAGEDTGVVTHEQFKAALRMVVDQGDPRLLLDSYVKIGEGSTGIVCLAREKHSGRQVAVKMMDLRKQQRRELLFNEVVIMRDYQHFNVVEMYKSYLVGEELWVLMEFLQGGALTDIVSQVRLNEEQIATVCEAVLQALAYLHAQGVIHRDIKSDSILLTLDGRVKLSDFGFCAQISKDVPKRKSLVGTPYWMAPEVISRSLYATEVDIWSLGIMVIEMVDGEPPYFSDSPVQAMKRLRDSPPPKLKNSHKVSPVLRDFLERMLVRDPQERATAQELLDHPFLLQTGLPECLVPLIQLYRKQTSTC
Sequence of ZAP70 (human) (P43403 whole entry, looked up): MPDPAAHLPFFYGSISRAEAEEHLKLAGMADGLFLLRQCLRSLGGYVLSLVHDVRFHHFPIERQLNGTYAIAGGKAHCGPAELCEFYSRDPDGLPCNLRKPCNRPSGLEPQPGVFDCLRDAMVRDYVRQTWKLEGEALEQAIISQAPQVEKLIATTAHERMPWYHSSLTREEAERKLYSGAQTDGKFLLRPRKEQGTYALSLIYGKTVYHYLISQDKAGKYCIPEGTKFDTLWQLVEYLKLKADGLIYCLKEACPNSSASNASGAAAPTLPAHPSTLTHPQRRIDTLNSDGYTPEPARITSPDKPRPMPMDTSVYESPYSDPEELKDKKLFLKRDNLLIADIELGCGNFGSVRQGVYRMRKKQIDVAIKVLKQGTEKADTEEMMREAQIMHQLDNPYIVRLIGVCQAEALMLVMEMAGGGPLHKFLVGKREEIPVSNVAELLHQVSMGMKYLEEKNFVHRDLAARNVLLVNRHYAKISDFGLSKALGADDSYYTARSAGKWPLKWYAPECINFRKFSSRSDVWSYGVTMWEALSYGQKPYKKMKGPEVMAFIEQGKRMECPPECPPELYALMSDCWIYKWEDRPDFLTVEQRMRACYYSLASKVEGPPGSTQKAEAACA
Sequence of PNCK (human) (Q6P2M8 whole entry, looked up): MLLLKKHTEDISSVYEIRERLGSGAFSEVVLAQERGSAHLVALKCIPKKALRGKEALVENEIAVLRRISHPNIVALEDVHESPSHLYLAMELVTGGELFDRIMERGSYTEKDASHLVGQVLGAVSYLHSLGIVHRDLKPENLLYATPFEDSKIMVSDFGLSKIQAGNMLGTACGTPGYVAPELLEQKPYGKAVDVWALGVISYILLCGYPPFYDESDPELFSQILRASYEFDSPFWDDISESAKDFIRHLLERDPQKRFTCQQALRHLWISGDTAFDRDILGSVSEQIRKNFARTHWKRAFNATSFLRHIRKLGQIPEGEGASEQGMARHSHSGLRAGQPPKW
Sequence of TEK (human) (Q02763 whole entry, looked up): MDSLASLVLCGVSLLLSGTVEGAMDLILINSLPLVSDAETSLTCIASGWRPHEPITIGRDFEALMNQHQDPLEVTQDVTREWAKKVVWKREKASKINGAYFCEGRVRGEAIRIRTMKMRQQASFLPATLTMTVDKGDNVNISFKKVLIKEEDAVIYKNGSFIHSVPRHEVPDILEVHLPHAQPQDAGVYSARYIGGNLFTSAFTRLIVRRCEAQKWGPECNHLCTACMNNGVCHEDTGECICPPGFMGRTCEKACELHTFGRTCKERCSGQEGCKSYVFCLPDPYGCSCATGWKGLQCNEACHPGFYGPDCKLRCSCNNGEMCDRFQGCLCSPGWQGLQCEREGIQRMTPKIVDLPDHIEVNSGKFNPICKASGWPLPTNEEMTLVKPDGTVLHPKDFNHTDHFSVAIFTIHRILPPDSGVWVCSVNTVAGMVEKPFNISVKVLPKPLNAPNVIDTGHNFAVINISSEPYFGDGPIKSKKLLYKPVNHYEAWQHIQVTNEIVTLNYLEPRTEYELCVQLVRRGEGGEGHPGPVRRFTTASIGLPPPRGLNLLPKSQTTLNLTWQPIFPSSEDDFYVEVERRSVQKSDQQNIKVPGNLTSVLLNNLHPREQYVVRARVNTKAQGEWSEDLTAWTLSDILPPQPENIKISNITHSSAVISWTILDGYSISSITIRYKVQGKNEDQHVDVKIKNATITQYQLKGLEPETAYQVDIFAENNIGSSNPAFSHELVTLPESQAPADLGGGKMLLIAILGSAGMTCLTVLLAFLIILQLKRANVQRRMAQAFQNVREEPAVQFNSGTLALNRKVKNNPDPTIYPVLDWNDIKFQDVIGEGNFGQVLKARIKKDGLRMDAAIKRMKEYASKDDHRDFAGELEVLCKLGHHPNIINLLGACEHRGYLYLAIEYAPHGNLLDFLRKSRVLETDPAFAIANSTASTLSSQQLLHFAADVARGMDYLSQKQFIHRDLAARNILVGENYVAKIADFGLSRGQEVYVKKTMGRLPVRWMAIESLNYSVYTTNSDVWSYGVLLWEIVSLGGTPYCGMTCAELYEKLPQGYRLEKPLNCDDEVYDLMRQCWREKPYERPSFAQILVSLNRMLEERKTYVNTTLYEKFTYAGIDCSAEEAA
Sequence of MST4 (human) (Q9P289 whole entry, looked up): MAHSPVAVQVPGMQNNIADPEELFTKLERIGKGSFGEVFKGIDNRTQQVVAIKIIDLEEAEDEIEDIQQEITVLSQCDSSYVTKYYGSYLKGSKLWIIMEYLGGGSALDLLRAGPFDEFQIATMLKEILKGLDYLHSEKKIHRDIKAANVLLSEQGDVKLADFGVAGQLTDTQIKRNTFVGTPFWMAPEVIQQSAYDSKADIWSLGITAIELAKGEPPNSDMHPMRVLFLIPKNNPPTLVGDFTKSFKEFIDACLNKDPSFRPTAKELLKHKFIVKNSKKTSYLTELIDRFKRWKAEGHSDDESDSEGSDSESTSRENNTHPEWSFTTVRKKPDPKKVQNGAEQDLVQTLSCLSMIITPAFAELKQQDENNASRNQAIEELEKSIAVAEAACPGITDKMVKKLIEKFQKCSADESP
Sequence of NEK7 (human) (Q8TDX7 whole entry, looked up): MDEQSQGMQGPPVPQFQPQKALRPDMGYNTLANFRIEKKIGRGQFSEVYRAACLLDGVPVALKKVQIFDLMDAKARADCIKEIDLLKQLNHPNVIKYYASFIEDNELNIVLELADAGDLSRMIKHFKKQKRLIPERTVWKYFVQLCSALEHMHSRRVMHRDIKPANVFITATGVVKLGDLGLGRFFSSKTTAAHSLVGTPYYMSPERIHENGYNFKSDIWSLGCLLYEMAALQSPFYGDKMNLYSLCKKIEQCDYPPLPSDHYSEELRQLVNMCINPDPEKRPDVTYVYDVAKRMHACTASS
Sequence of CAMK1 (human) (Q14012 whole entry, looked up): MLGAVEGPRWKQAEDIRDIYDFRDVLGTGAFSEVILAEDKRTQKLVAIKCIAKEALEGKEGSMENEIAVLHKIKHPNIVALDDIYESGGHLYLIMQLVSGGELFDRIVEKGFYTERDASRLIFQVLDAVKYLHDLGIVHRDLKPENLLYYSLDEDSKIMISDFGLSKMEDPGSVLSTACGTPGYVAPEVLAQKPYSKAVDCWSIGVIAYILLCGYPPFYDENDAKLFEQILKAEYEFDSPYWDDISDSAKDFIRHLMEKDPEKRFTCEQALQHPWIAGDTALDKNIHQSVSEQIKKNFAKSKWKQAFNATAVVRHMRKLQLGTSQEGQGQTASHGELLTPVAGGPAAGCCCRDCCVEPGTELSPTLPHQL
Sequence of TGFBR1 (human) (P36897 whole entry, looked up): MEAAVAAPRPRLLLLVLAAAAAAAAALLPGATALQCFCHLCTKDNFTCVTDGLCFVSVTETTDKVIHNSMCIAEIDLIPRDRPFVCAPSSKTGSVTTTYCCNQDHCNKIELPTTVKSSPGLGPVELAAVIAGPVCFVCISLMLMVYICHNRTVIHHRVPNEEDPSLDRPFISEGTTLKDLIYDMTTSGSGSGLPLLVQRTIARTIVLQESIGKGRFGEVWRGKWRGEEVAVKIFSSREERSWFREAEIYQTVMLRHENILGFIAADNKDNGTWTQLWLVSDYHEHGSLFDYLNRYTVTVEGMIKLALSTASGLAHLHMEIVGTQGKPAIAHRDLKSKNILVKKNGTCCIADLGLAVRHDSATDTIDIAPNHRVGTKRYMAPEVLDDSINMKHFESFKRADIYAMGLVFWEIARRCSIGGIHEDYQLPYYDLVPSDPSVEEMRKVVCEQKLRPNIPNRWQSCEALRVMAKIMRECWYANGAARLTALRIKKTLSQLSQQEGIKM
Sequence of CLK3 (human) (P49761 whole entry, looked up): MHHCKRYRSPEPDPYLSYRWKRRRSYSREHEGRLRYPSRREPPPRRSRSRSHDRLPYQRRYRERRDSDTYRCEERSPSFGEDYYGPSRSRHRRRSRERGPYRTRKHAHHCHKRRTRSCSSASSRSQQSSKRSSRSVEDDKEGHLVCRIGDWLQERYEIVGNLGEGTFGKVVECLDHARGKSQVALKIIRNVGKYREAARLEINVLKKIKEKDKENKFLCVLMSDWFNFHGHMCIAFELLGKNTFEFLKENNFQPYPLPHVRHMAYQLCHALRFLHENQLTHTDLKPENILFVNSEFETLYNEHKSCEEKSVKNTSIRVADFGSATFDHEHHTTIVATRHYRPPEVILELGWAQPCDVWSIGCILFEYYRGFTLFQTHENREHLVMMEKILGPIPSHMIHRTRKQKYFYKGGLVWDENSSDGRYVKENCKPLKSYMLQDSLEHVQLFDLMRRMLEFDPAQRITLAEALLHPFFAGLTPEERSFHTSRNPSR

## COc1cc2ncc(-c3ccccc3)nc2cc1OC
[1]
  residual activity: 113%
[2]
  residual activity: 106%
[3]
  residual activity: 97.4%
[4]
  residual activity: 65.9%
[5]
  residual activity: 80%
[6]
  residual activity: 94.1%
[7]
  residual activity: 109%
[8]
  residual activity: 112%
[9]
  residual activity: 97.1%
[10]
  residual activity: 84.2%
[11]
  residual activity: 115%
[12]
  residual activity: 104%
[13]
  residual activity: 82.7%
[14]
  residual activity: 75.9%
[15]
  residual activity: 102%
[16]
  residual activity: 101%
[17]
  residual activity: 90.4%
[18]
  residual activity: 102%
[19]
  residual activity: 108%
[20]
  residual activity: 90.1%
[21]
  residual activity: 85.4%
[22]
  residual activity: 95.5%
[23]
  residual activity: 88.2%
[24]
  residual activity: 82.8%
[25]
  residual activity: 95.9%
[26]
  residual activity: 102%
[27]
  residual activity: 90.6%
[28]
  residual activity: 85.3%
[29]
  residual activity: 98.2%
[30]
  residual activity: 98.6%
[31]
  residual activity: 86.8%
[32]
  residual activity: 78.7%
[33]
  residual activity: 93.1%
[34]
  residual activity: 90.3%
[35]
  residual activity: 87.4%
[36]
  residual activity: 90.3%
[37]
  residual activity: 94.6%
[38]
  residual activity: 104%
[39]
  residual activity: 85.7%
[40]
  residual activity: 97.9%
[41]
  residual activity: 85.6%
